The target of one assay is T1, delF508-CFTR-HRP (Homo sapiens, UniProt P13569, DEL508-508).
T1 construct: expressed in transfected cells
Kind of assay: Measurement of delF508-CFTR-HRP surface expression in CFBE41o- cells (HRP luminescence).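 On DelF508-CFTR-HRP Amax %: percent efficacy relative to a reference CFTR corrector compound.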 The format is cell-based. Particulars: for EC50: mean of at least two replicates; for Emax: CFBE41o-, read-out: DelF508-CFTR-HRP Amax %. A digest of the protocol:
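Stably transfected CFBE41o- cells carrying HRP in the fourth extracellular loop of delF508-CFTR, induced with 500 ng/mL doxycycline for 48 h, then compound-treated 24 h at 37° C (10-point, 3-fold, top 10 μM). Surface HRP detected by luminescent substrate; EC50 from logistic fit, triplicates, normalized to lowest-concentration median.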

The target of the next assay is T2, delF508-CFTR (Homo sapiens, UniProt P13569, DEL508-508).
T2 construct: functional activity of the CFTR channel (Chloride ion transport) in patient derived primary human bronchial epithelial cells; host or cells: patient-derived primary human bronchial epithelial cells (HBECs), delF508-CFTR
Kind of assay: delF508-CFTR functional activity in primary human bronchial epithelial cells (HBECs), Multi-Transepithelial Clamp Circuit (MTECC-24) assay, equivalent short circuit current. The note with it: primary CF HBECs; for MTECC24 CFHBEC-Amax %: relative to reference combination 2 μM 3-(6-(1-(2,2-difluorobenzo[d][1,3]dioxol-5-yl)cyclopropane-1-carboxamido)-3-methylpyridin-2-yl)benzoic acid (24 h) + 0.5 μM N-(2,4-di-tert-butyl-5-hydroxyphenyl)-4-oxo-1,4-dihydroquinoline-3-carboxamide; for EC50: test compound added 24 h before assay, potentiator (S)-3-amino-6-methoxy-N-(3,3,3-trifluoro-2-hydroxy-2-methylpropyl)-5-(trifluoromethyl)picolinamide present at assay, mean of at least two replicates, read-out: MTECC24 CFHBEC-EC50. The format is cell-based. A digest of the protocol: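 Patient-derived delF508 HBECs, grown at air-liquid interface about two weeks, were corrected with compound basolaterally for 24 h. Compound was then re-added apically and basolaterally in HEPES pH7.4 assay medium, with sequential modulators including forskolin and the picolinamide potentiator. Ieq was recorded, normalised to 0.1% DMSO wells, and EC50 fitted from 10-point curves.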

T1 sequence (P13569 with tags, fused parts or gaps DEL508-508): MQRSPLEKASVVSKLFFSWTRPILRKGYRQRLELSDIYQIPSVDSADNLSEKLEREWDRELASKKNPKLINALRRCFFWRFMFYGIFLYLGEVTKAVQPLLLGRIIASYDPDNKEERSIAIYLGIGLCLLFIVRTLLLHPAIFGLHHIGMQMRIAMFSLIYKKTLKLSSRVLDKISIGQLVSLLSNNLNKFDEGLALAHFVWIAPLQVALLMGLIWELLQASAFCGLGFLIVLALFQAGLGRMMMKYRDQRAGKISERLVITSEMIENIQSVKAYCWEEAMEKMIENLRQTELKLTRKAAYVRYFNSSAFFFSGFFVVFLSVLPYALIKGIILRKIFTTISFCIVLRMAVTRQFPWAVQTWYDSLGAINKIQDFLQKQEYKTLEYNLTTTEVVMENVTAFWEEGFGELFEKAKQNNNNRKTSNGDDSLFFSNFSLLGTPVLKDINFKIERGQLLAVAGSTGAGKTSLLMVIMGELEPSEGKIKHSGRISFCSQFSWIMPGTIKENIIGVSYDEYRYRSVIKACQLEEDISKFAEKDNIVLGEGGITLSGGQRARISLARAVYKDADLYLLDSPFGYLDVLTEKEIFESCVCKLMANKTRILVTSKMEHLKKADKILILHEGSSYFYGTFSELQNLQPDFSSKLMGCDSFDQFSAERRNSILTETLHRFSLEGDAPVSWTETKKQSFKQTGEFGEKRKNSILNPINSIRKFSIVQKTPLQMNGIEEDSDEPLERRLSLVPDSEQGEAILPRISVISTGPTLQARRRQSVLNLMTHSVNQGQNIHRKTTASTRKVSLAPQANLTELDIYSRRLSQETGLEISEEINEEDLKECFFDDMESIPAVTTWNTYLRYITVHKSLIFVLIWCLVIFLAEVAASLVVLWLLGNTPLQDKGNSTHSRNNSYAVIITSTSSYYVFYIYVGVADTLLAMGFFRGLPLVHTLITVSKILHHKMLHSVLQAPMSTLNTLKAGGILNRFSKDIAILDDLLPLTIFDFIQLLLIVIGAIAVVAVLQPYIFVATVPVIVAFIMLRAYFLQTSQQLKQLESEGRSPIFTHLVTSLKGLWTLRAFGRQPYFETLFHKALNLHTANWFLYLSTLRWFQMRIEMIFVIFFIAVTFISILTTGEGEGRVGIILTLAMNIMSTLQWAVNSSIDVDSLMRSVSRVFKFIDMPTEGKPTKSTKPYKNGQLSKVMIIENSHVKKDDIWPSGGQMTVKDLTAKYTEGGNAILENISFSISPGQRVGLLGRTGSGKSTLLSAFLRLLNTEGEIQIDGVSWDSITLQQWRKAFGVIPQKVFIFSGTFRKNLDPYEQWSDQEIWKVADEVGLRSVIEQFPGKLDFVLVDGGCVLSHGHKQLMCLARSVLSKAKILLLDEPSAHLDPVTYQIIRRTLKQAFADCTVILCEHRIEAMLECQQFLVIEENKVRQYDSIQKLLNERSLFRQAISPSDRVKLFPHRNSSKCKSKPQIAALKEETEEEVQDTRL
T2 sequence (P13569 with tags, fused parts or gaps DEL508-508): as above

As a reminder, the EC50 is the concentration needed to bring the measured effect to its halfway point. On to `Cc1ccc(C2CCC(C)(C)OC2)c(OC2(C(=O)NS(=O)(=O)c3cccc(N4CCC(O)(c5ccc(Cl)cc5)CC4)n3)CC2)c1` (single isomer, unassigned) [Example 11-1-1, N-((6-(4-(4-chlorophenyl)-4-hydroxypiperidin-1-yl)pyridin-2-yl)sulfonyl)-1-(2-(6,6-dimethyltetrahydro-2H-pyran-3-yl)-5-methylphenoxy)cyclopropane-1-carboxamide], for which, at delF508-CFTR-HRP, the “DelF508-CFTR-HRP Amax %” value worked out at 920.6% and the EC50 stood at 920 nM. Moreover, at delF508-CFTR, the “MTECC24 CFHBEC-Amax %” value was found to be 148.8% and the EC50 came out at 394 nM.

Turning to `Cc1ccc(C2CCCCC2)c(OC2(C(=O)NS(=O)(=O)c3cccc(N[C@H]4C[C@@H](O)C4)n3)CC2)c1` [Example 2-36, 1-(2-Cyclohexyl-5-methylphenoxy)-N-((6-((cis-3-hydroxycyclobutyl)amino)pyridin-2-yl)sulfonyl)cyclopropane-1-carboxamide], at delF508-CFTR-HRP, the Emax turned out to be 432% and the EC50 was determined as 2090 nM. Further, on delF508-CFTR, the “MTECC24 CFHBEC-Amax %” value is listed as 152% and the EC50 turned out to be 44 nM.

Turning to `Cc1ccc(C2CCCCC2)c(OC2(C(=O)NS(=O)(=O)c3cccc(N4CCC(C)(NC(=O)OC(C)(C)C)C4)n3)CC2)c1` (stereo not drawn) [Example 2-24, Tert-butyl (1-(6-(N-(1-(2-cyclohexyl-5-methylphenoxy)cyclopropanecarbonyl)sulfamoyl)pyridin-2-yl)-3-methylpyrrollidin-3-yl)carbamate], on delF508-CFTR-HRP, the Emax is 591% and the midpoint of the response, the EC50, lay at 1270 nM. Moreover, on delF508-CFTR, the “MTECC24 CFHBEC-Amax %” value was found to be 62% and the EC50 was determined as 5 nM.

With `Cc1ccc(C)c(OC2(C(=O)NS(=O)(=O)c3cccc(N4CCOC[C@@H]4C)n3)CC2)c1` [Example 4-2, (S)-1-(2,5-Dimethylphenoxy)-N-((6-(3-methylmorpholino)pyridin-2-yl)sulfonyl)cyclopropane-1-carboxamide], on delF508-CFTR-HRP, the Emax came to 134% and the EC50 was found to be 4670 nM. On delF508-CFTR, the “MTECC24 CFHBEC-Amax %” value was 34% and the EC50 came out at 568 nM.

With `Cc1ccc(C2CC2)c(OC2(C(=O)NS(=O)(=O)c3cccc(NC[C@H](C)O)n3)CC2)c1` [Example 4-14, (S)-1-(2-Cyclopropyl-5-methylphenoxy)-N-((6-((2-hydroxypropyl)amino)pyridin-2-yl)sulfonyl)cyclopropane-1-carboxamide], on delF508-CFTR-HRP, the Emax worked out at 119% and the EC50 turned out to be 3650 nM. Also, on delF508-CFTR, the “MTECC24 CFHBEC-Amax %” value was 57% and the EC50 came out at 109 nM.

As to `Cc1ccc(C2CCC(F)(F)CC2)c(OC2(C(=O)NS(=O)(=O)c3cccc(N4CCCC(CO)C4)n3)CC2)c1` (single isomer, unassigned) [Example 3-3-1], at delF508-CFTR-HRP, the Emax came out at 597% and the response was half-maximal at 2870 nM (EC50). At delF508-CFTR, the “MTECC24 CFHBEC-Amax %” value was determined as 99% and the EC50 came out at 11 nM.

Regarding `Cc1ccc(C2CCCCC2)c(OC2(C(=O)NS(=O)(=O)c3cccc(N4C[C@@H]5C[C@@H]5[C@H](N)C4)n3)CC2)c1` (relative stereo) [Example 2-44, N-((6-(5-cis-amino-3-azabicyclo[4.1.0]heptan-3-yl)pyridin-2-yl)sulfonyl)-1-(2-cyclohexyl-5-methylphenoxy)cyclopropane-1-carboxamide], at delF508-CFTR-HRP, the Emax stood at 120% and the EC50 is 3980 nM. For the same compound, on delF508-CFTR, the “MTECC24 CFHBEC-Amax %” value is 66% and the EC50 stood at 256 nM.

Turning to `Cc1ccc(C2CCCCC2)c(OC2(C(=O)NS(=O)(=O)c3cccc(N4CCOC[C@@H]4C)n3)CC2)c1` [Example 2-2, (S)-1-(2-Cyclohexyl-5-methylphenoxy)-N-((6-(3-methylmorpholino)pyridin-2-yl)sulfonyl)cyclopropanecarboxamide], at delF508-CFTR-HRP, the Emax was determined as 561% and the EC50 was determined as 1330 nM. Moreover, at delF508-CFTR, the “MTECC24 CFHBEC-Amax %” value is reported as 59% and the EC50 is 2 nM.

As for `NC1(C(F)(F)F)CCN(c2cccc(S(=O)(=O)NC(=O)C3(Oc4cc(Cl)ccc4C4CC5(CCC5)C4)CC3)n2)CC1` [Example 7-17, N-((6-(4-amino-4-(trifluoromethyl)piperidin-1-yl)pyridin-2-yl)sulfonyl)-1-(5-chloro-2-(spiro[3.3]heptan-2-yl)phenoxy)cyclopropane-1-carboxamide], on delF508-CFTR-HRP, the Emax came to 377% and the EC50 is 420 nM. For the same compound, at delF508-CFTR, the “MTECC24 CFHBEC-Amax %” value was 128.4% and the EC50 stood at 57 nM.

In the case of `O=C(NS(=O)(=O)c1cccc(N2CC[C@H](O)C2)n1)C1(Oc2cc(Cl)ccc2N2CC3(C2)CC(F)(F)C3)CC1` [Example 9-22, (S)-1-(5-Chloro-2-(6,6-difluoro-2-azaspiro[3.3]heptan-2-yl)phenoxy)-N-((6-(3-hydroxypyrrolidin-1-yl)pyridin-2-yl)sulfonyl)cyclopropanecarboxamide], on delF508-CFTR-HRP, the Emax came out at 139% and the concentration for a half-maximal effect (EC50) worked out at 4460 nM. Besides, on delF508-CFTR, the “MTECC24 CFHBEC-Amax %” value was 82.1% and the EC50 amounted to 1760 nM.

As for `Cc1ccc(C2CCC3(CCC3)OC2)c(OC2(C(=O)NS(=O)(=O)c3cccc(N4CCC(C)(O)CC4)n3)CC2)c1` (single isomer, unassigned) [Example 11-4-1, N-((6-(4-hydroxy-4-methylpiperidin-1-yl)pyridin-2-yl)sulfonyl)-1-(5-methyl-2-(5-oxaspiro[3.5]nonan-7-yl)phenoxy)cyclopropane-1-carboxamide], on delF508-CFTR-HRP, the “DelF508-CFTR-HRP Amax %” value worked out at 460.1% and the EC50 turned out to be 2260 nM. Moreover, at delF508-CFTR, the “MTECC24 CFHBEC-Amax %” value was 60.8% and the EC50 came to 1080 nM.

On to `Cc1ccc(C2CCCCC2)c(OC2(C(=O)NS(=O)(=O)c3cccc(N4CCC(C)(C#N)CC4)n3)CC2)c1` [Example 2-15, N-((6-(4-cyano-4-methylpiperidin-1-yl)pyridin-2-yl)sulfonyl)-1-(2-cyclohexyl-5-methylphenoxy)cyclopropanecarboxamide], for which, on delF508-CFTR-HRP, the Emax is 284% and it took 940 nM to reach a half-maximal effect (EC50). In addition, at delF508-CFTR, the “MTECC24 CFHBEC-Amax %” value is listed as 101% and the EC50 came to 3 nM.

With `O=C(NS(=O)(=O)c1cccc(N2CC[C@H](O)C2)n1)C1(Oc2cc(C(F)(F)F)ccc2-c2cccc(C(F)(F)F)c2)CC1` [Example 5-5, (S)-1-((3′,4-Bis(trifluoromethyl)-[1,1′-biphenyl]-2-yl)oxy)-N-((6-(3-hydroxypyrrolidin-1-yl)pyridin-2-yl)sulfonyl)cyclopropane-1-carboxamide], on delF508-CFTR-HRP, the Emax turned out to be 242% and it took 2050 nM to reach a half-maximal effect (EC50). In addition, on delF508-CFTR, the “MTECC24 CFHBEC-Amax %” value turned out to be 94% and the EC50 came to 71 nM.

On to `CN(C)c1cccc(S(=O)(=O)NC(=O)C2(Oc3cc(Cl)ccc3C3CC4(CCC4)C3)CC2)n1` [Example 7-15, 1-(5-Chloro-2-(spiro[3.3]heptan-2-yl)phenoxy)-N-((6-(dimethylamino)pyridin-2-yl)sulfonyl)cyclopropane-1-carboxamide], for which, on delF508-CFTR-HRP, the Emax stood at 442% and a half-maximal response (EC50) required 860 nM. Moreover, at delF508-CFTR, the “MTECC24 CFHBEC-Amax %” value came out at 120.7% and the EC50 is 166 nM.

For the compound `Cc1ccc(-c2cccc(OC(F)(F)F)c2)c(OC2(C(=O)NS(=O)(=O)c3cccc(N4CC(C)(O)C4)n3)CC2)c1` [Example 5-8, N-((6-(3-Hydroxy-3-methylazetidin-1-yl)pyridin-2-yl)sulfonyl)-1-((4-methyl-3′-(trifluoromethoxy)-[1,1′-biphenyl]-2-yl)oxy)cyclopropane-1-carboxamide], at delF508-CFTR-HRP, the Emax turned out to be 371% and a half-maximal response (EC50) required 2480 nM. Also, at delF508-CFTR, the “MTECC24 CFHBEC-Amax %” value turned out to be 57% and the EC50 turned out to be 6 nM.

As to `Cc1ccc(-c2ccc(C(F)(F)F)cc2)c(OC2(C(=O)NS(=O)(=O)c3cccc(N4CC[C@H](O)C4)n3)CC2)c1` [Example 5-10, (S)—N-((6-(3-Hydroxypyrrolidin-1-yl)pyridin-2-yl)sulfonyl)-1-((4-methyl-4′-(trifluoromethyl)-[1,1′-biphenyl]-2-yl)oxy)cyclopropane-1-carboxamide], at delF508-CFTR-HRP, the Emax was found to be 416% and the EC50 was 1210 nM. On delF508-CFTR, the “MTECC24 CFHBEC-Amax %” value worked out at 114% and the EC50 was found to be 26 nM.

Regarding `Cc1ccc(C2CCCCC2)c(OC2(C(=O)NS(=O)(=O)c3cccc(N4CCC5(CCCC5N)CC4)n3)CC2)c1` (stereo not drawn) [Example 2-20, N-((6-(1-Amino-8-azaspiro[4.5]decan-8-yl)pyridin-2-yl)sulfonyl)-1-(2-cyclohexyl-5-methylphenoxy)cyclopropanecarboxamide], on delF508-CFTR-HRP, the Emax was determined as 354% and the EC50 stood at 2540 nM. Moreover, on delF508-CFTR, the “MTECC24 CFHBEC-Amax %” value is recorded as 122% and the EC50 came to 198 nM.

On to `O=C(NS(=O)(=O)c1cccc(N2CC(O)C2)n1)C1(Oc2cc(Cl)ccc2C2CC3(CCC3)C2)CC1` [Example 7-9, 1-(5-Chloro-2-(spiro[3.3]heptan-2-yl)phenoxy)-N-((6-(3-hydroxyazetidin-1-yl)pyridin-2-yl)sulfonyl)cyclopropane-1-carboxamide], for which, on delF508-CFTR-HRP, the Emax turned out to be 300% and a half-maximal effect (EC50) was put at 2050 nM. For the same compound, on delF508-CFTR, the “MTECC24 CFHBEC-Amax %” value was 120.3% and the EC50 was determined as 345 nM.

Values taken from patent US20220033407A1, “N-(pyridin-2-ylsulfonyl)cyclopropanecarboxamide Derivatives and their Use in the Treatment of Disease” (NOVARTIS AG, priority 2018, published 2022).
